A word on the AUC: it is concentration integrated over time.

pIC50: −log10 of the molar value.

The values below come from patent US20220298143A1, “Pyrazole Derivatives for FGFR Inhibitor and Preparation Method Thereof” (Etern Biopharma (Shanghai) Co., Ltd., priority 2019, published 2022).

One data set addresses T1, FGFR1 (Homo sapiens, UniProt P11362).
T1 construct: purchased Cama (sic; Carna) 08-133
The data set can be described thus: Enzymatic activity test of FGFR inhibitor, Caliper model. It counts as biochemical. As to conditions: Caliper, kinase pre-incubation 10 minutes; read-out: FGFR1.

The target of the next data set is FGFR2 (Homo sapiens, UniProt P21802). Described as above. The data set is classed as biochemical. The note with it: kinase pre-incubation 10 minutes.
FGFR2, sequence (P21802 22-821): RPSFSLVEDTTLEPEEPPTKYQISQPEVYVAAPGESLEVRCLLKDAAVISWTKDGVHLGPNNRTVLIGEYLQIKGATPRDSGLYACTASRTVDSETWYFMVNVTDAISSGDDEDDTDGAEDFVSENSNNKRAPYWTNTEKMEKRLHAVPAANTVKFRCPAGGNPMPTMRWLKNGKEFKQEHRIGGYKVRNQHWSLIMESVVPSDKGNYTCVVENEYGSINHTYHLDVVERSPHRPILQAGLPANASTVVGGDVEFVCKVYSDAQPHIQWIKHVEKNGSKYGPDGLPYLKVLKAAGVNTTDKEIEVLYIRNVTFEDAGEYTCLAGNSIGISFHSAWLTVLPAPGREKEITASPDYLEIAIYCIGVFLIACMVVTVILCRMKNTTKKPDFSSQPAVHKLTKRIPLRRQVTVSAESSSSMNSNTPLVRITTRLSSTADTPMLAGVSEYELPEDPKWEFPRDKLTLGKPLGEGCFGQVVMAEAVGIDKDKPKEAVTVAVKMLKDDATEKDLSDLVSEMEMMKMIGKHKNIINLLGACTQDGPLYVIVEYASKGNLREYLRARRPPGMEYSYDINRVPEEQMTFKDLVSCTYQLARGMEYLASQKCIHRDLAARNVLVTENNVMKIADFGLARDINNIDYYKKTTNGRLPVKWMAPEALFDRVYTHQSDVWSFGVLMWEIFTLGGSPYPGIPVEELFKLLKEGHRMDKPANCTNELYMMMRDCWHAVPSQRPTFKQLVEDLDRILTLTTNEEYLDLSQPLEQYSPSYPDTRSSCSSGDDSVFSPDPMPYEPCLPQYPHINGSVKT
A further data set has as its target FGFR3 (Homo sapiens, UniProt P22607). The data set is described as above. As to conditions: kinase pre-incubation 10 minutes. It counts as biochemical.
Another data set has as its target T2, FGFR4 (Homo sapiens, UniProt P22455).
T2 construct: purchased Invitrogen PR4380A
The description is as above. The data set is classed as biochemical. The note with it: Caliper, kinase pre-incubation 10 minutes; read-out: FGFR4.

For the next data set, the system named is Hep3B cells. The data set can be described thus: Human liver cancer cell Hep3B survival test (CellTiter-Glo). The data set is classed as cell-based. As to conditions: 72 hours compound treatment. Here is the method: Human Liver Cancer Cell Hep3B Survival Test
The human liver cancer Hep3B cell line was from ATCC. The cells were cultured in DMEM liquid medium, and fetal bovine serum (10% FBS) and penicillin-streptomycin (100,000 U/L) were added. The cells were kept at 37° C., 95% humidity and 5% carbon dioxide in the culture medium. During the experiment, Hep3B cells were seeded in a 96-well plate at a density of 3000 cells per well. The volume of the cell suspension was 100 μL per well, and the cells were cultured overnight to attach the cells. The next day, each compound was diluted with DMSO in a three-fold gradient, and 1 μL of the solution of the compound in DMSO was added to the cell culture medium. At the same time, 1 μL of DMSO was used as a control. Three parallel sub-wells were set for each concentration of each compound. Then the cells were placed in a 37° C. incubator. After 72 hours of continuous compound treatment, 50 μL CellTiter-Glo (Promega, Madison Wis.) was added to the cell culture medium. The relative luminescence unit (RLU) of each well was determined and the cell survival rate and compound activity (IC50) were calculated.
Background: Cellular ATP, detected with luciferase, serves as a proxy for viable cell number.

Data set [1] can be described thus: Compound pharmacokinetic experiment, single intragastric administration. The data set is classed as in vivo. The note with it: mouse, plasma, male mice, oral dosage 15 mg/Kg. As to the method: Compound Pharmacokinetic Experiment
The pharmacokinetics of the compounds of the present disclosure was determined. This application used the following methods to determine the pharmacokinetic parameters of the compounds.
For the healthy male adult mice used in the study, each group of animals was given a single intragastric administration of 5-100 mg/Kg. Fasting was from 10 hours before administration to 4 hours after administration. Blood was collected at different time points after administration, and the plasma content of the compound was determined (LC-MS/MS). The plasma concentration-time relationship was analyzed with professional software (winnonlin) to calculate the pharmacokinetic parameters of the compound.

The test system of data set [2] is Human liver cancer Hep3B cells. The data set can be described thus: Hep3B transplanted tumor model. The data set is classed as in vivo, Balb/c nude mice. As to conditions: 21 days. Here is the method:
Hep3B Transplanted Tumor Model
Cell culture: Human liver cancer Hep3B cells were cultured in a monolayer in vitro. The culture conditions were 1640 medium with 10% fetal bovine serum, 100 U/mL penicillin and 100 μg/mL streptomycin, incubated at 37° C. in 5% CO2 incubator. Routine digestive passage was performed by pancreatin-EDTA twice a week. When the cell saturation was 80%-90% and the number reached the requirement, the cells were collected, counted, and inoculated.
Animals: Balb/c nude mice, female, 6-8 weeks old, weighing 18-22 grams, provided by Shanghai Slack Laboratory Animal Co., Ltd. or other qualified suppliers.
Tumor inoculation: 0.2 mL (10×106+Matrixgel) Hep3B cells were subcutaneously inoculated on the right back of each mouse, and group administration was started when the average tumor volume reached about 140-200 mm^3.
Administration: compound prescription (0.5% MC+0.5% Tween 80) was made with administration dose of 0.3 mg/Kg, 1 mg/Kg, 2 mg/Kg, 3 mg/Kg, intragastric administration twice a day continuously for 21 days.
Experimental indicators: to investigate whether tumor growth was inhibited, delayed or cured, the tumor diameter was measured with a vernier caliper three times a week. The calculation formula for tumor volume is: V=0.5a×b2, where a and b represent the long diameter and short diameter of the tumor, respectively. The anti-tumor efficacy of the compound was evaluated by TGI (%). TGI (%) reflected the tumor growth inhibition rate.

Data set [3] concerns the target T3, FGFR1 (456-763) kinase domain protein (Homo sapiens, UniProt P11362).
T3 construct: The purified FGFR1 (456-763) kinase domain protein
The data set can be described thus: Confirmation of covalent bond formation between inhibitor and FGFR by mass spectrometry. It counts as binding. Here is the method: Confirmation of the Formation of Covalent Bonds Between FGFR Irreversible Inhibitors and FGFR by Mass Spectrometry
For example, compound 1 was incubated with FGFR1, the molecular weight of the protein-compound complex was detected by mass spectrometry.
Operation steps: The purified FGFR1 (456-763) kinase domain protein was diluted with a protein buffer (20 mM Tris-HCL pH8.0, 150 mM Nacl) to a final concentration of about 20 μM (800 ng/μl). A 100 ul incubation system was used, wherein compound 1 with a final concentration of 100 μM was added to the experimental group with a molar ratio of the protein to compound of 1:5 and DMSO was added to the control group. The amount of DMSO was controlled in the two groups to be 1% by volume of the system. The experimental group and the control group were incubated on ice at the same time for 2 hours, and then diluted with 4 times volume of acetone at −20 overnight. After centrifugation at 16000×g for 10 minutes, the deposit was resuspended in 0.1% formic acid and loaded for mass spectrometry data collection.

The mark [4] stands for this setting: 100 μM compound, about 20 μM protein, 2 hours on ice.

T3 sequence (P11362 456-763): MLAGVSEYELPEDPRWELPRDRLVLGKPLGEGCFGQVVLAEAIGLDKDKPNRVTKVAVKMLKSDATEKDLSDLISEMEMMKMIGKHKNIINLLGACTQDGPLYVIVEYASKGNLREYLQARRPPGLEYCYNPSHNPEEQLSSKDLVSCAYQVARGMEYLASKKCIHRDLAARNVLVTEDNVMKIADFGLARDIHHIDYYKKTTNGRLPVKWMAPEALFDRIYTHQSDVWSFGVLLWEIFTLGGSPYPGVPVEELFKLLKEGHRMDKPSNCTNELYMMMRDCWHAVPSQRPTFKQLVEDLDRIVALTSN
T2 sequence (P22455 22-802): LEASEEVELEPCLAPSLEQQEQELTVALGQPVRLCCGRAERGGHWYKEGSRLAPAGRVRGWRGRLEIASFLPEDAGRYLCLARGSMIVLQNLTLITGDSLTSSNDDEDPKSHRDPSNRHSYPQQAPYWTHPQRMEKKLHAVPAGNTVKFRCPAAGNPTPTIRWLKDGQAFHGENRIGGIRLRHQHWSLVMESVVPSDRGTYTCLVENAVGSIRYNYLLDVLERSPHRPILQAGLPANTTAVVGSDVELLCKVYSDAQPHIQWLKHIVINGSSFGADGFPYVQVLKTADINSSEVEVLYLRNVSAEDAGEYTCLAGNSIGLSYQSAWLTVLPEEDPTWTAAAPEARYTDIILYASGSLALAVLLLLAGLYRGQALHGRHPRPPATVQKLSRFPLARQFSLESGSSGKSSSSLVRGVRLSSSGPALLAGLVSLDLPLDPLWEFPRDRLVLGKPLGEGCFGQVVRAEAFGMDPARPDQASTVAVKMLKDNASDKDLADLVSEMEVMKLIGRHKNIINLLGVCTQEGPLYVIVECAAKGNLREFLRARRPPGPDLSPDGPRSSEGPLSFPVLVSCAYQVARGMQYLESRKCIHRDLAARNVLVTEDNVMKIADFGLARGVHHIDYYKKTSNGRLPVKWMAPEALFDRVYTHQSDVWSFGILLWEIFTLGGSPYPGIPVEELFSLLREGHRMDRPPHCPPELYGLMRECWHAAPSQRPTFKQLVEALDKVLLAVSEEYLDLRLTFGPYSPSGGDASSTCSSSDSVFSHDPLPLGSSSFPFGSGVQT
FGFR3, sequence (P22607 23-806): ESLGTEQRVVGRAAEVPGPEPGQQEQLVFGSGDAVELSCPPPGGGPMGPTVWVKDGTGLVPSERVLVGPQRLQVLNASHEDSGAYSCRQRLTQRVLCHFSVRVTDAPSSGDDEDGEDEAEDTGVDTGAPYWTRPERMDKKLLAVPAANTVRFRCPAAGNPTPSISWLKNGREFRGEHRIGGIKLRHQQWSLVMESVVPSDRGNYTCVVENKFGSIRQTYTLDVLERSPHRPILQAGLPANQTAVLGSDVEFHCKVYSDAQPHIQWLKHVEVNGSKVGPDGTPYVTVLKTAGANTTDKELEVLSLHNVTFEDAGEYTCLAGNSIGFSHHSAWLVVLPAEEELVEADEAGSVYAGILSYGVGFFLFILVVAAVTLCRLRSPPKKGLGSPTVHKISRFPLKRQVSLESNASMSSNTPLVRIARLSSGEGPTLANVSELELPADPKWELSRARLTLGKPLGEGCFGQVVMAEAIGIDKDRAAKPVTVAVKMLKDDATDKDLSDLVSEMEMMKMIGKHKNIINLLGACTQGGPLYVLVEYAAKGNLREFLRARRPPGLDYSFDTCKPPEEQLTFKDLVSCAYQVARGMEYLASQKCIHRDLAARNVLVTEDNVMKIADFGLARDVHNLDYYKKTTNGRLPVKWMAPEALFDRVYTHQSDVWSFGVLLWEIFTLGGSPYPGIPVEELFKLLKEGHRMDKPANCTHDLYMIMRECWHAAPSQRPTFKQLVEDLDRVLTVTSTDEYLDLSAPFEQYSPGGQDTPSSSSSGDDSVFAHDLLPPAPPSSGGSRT
T1 sequence (P11362 22-822): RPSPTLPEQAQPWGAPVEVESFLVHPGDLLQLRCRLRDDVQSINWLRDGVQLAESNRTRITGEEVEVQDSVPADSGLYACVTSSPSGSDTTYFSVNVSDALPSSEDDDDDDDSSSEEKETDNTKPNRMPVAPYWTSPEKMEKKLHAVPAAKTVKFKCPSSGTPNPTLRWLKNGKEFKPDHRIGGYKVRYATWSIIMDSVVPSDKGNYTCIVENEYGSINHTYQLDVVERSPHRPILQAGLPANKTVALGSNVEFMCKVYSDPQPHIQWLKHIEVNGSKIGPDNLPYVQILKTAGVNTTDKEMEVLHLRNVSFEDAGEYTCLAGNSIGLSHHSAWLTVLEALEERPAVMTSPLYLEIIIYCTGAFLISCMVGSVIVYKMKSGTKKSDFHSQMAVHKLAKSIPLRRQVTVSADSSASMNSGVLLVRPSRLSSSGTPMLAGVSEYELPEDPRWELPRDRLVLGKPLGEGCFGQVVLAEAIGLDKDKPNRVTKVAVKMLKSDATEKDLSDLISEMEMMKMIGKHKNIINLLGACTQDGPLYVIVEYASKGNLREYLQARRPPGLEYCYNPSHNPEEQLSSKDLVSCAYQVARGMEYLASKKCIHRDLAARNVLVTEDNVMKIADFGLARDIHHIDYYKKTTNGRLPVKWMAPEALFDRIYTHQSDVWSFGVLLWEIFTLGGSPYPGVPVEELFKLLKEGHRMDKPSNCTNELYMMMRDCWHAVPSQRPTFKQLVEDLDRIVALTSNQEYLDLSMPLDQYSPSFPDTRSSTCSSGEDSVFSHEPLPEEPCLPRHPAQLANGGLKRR
Method for FGFR2: (§1) Enzymatic Activity Test of FGFR Inhibitor-Caliper Model
(§2) The specific operation steps were as follows:
(§3) The compound was first serially diluted in 5% DMSO solution, and 5 μL of the compound solution was added to a 384-well plate. The maximum final concentration of the compound is 1 μM, being diluted three times with 10 concentrations.
(§4) 10 μL of kinase solution was added to the 384-well plate and incubated at room temperature for 10 minutes;
(§5) 10 μL of P22 peptide and ATP solution were added to the 384-well plate, and 25 μL of reaction stop buffer was added after a specific time at 28° C.;
(§6) The data was collected in Caliper read and the inhibition rate was calculated according to inhibition rate=(max−conversion)/(max−min)*100, where max is DMSO control, conversion is the reading of the compound treated group, and min is the maximum inhibition control. IC50 value of the compound was calculated with XLfit excel add-in version 5.4.0.8 software.
Method for FGFR4: as §1, §2, §3, §4, §5, §6

On to `C=CC(=O)Nc1cc(N2CCN(CCC(F)(F)F)CC2)ccc1C(=O)Nc1cc(CCc2cc(OC)cc(OC)c2)n[nH]1` [Compound 1, 2-acrylamide-N-(3-(3,5-dimethoxyphenethyl)-1H-pyrazol-5-yl)-4-(4-(3,3,3-trifluoropropyl)piperazin-1-yl) benzamide], for which the pIC50 was 8.72 on FGFR1; 8.74 against FGFR2; 8.48 at FGFR3; 8.92 on FGFR4; 8.85 in the data set on Hep3B cells. Moreover, in data set [1] (read-out: Peak plasma concentration Cmax), the Cmax stood at 1.22 µM. Further, the area under the curve (AUC) in data set [1] (read-out: Plasma exposure AUC) is 2280 nM·h. For the same compound, the TGI % in data set [2] (0.3 mpk oral twice a day) is given as 17%; in data set [2] (1 mpk oral twice a day), 50%; in data set [2] (2 mpk oral twice a day) it was 100%; in data set [2] (3 mpk oral twice a day), 108%. Also, in data set [3] (setting [4]), the “average molecular weight of protein-compound complex” value was found to be 36345.5 Da. Besides, the “Δmolecular weight (complex versus DMSO + FGFR1)” value in data set [3] (setting [4]) was 598. For the same compound, the “formation of covalent bond with FGFR1 protein” value in data set [3] (mass spectrometry) is listed as “formed an irreversible covalent bond”.
